Test results from patent US4642341A, “Carbapenem antibiotics” (priority 1985, dated 1987).
Values after ≈ are worked out from the molar mass of the structure shown. Like-named read-outs stand apart in the source and are kept apart here.

What was measured:
H. influenzae A21518 = experiment: Minimum Inhibitory Concentration, tube dilution; assay type: cell-based; settings: Haemophilus influenzae, overnight 37° C., table 6
P. vulgaris A21559 = experiment: Minimum Inhibitory Concentration, tube dilution; assay type: cell-based; settings: Proteus vulgaris, A21559, overnight 37° C.; table 6
H. influenzae A-9833 = experiment: Minimum Inhibitory Concentration, tube dilution; assay type: cell-based; settings: Haemophilus influenzae, A9833; overnight 37° C.; table 6; read-out: MIC
P. aeruginosa A20481 = experiment: Protective effect, intramuscular treatment of infected mice (table 7); assay type: in vivo; settings: Pseudomonas aeruginosa, A20481, im; i.m. 1 and 3.5 hours post-infection; ~1×10^5 organisms i.p.; read-out: PD50 /treatment
Procedure: (§1) Drugs were administered i.m. 0 to 2 hours post-infection (A9606) or 1 and 3.5 hours post-infection for the others.

S. aureus A9606 = experiment: as above; assay type: in vivo; settings: Staphylococcus aureus, A9606, im; i.m. 0 to 2 hours post-infection; ~1×10^9 organisms i.p.; read-out: PD50 /treatment
Procedure: as §1

P. mirabilis A9900 = experiment: as above; assay type: in vivo; settings: Proteus mirabilis, A9900, im; i.m. 1 and 3.5 hours post-infection; ~1×10^7 organisms i.p.; read-out: PD50 /treatment
Procedure: as §1

[1] = Half-life in phosphate buffer pH 7.4; assay type: physicochemical; settings: phosphate buffer; for half-life: pH 7.4, t1/2 (half-life); for half-life at 100 µM: pH 7.4, τ1/2 (half-life)
Procedure: To a solution of p-nitrobenzyl 3-[2-(1-pyridinium)ethylthio)]-6α[1-(R)-hydroxyethyl]-7-oxo-1-azabicyclo(3.2.0)hept-2-ene-carboxylate diphenylphosphate (0.16 g, 0.22 mmol) in wet tetrahydrofuran (10mL) was added ether (10mL), potassium phosphate monobasic-sodium hydroxide buffer pH 7.4 (16 mL, 0.05 M) and 10% palladium on charcoal (0.16 g). The resulting mixture was hydrogenated under 40 psi for 1 h at 25° C. The two phases were separated and the organic phase was extracted with water (2×3 mL). The aqeuous solutions were combined, washed with ether (2×10 ml) and poured on top of a column (1.5×6.2 cm) pf μ-bondapak C-18 after the traces of organic solvents have been removed under vacuum. Elution of the column with water gave after lyophylization of the appropriate fractions a yellowish powder 0.062 g (84%), ir (KBr) .nu.max : 3700-3000 (OH), 1755 (C--O of β-lactam), 1630 (pyridinium), 1590 cm^-1 (carboxylate), ^1 Hmr (D2 O): 1.22 (3H, d, J=6.4 Hz, CH3 CHOH), 2.92 (d, J=9.1 Hz, H-4), 2.97 (d, J=9.1 Hz, H-4), 3.20 (dd, J=2.5 Hz, J=6.1 Hz, H-6), 3.44 (t, J=6.0 Hz, CH2 S), 3.93 (dd, J=9.1 Hz, J=2.5 Hz, H-5), 4.82 (t, J=6.0 Hz, CH2 N^+), 8.04 (m, Hm of pyridinium), 8.5 (m, Hp of pyridinium), 8.82 (dd, J=3.2. Hz, J=1.1 Hz, Ho of pyridinium), uv (H2 O) λ max : 259 (ε5800), 296 (ε7030) mμ, .tau.1/2 =13.5 h (measured at a concentration of 10^-4 M in phosphate buffer pH 7.4 at 36.8° C.).

E. coli A15119 = experiment: Minimum Inhibitory Concentration, tube dilution; assay type: cell-based; settings: Escherichia coli, A15119, overnight 37° C.; table 6
P. aeruginosa A21213 = experiment: Minimum Inhibitory Concentration, tube dilution; assay type: cell-based; settings: Pseudomonas aeruginosa
K. pneumoniae A20468 = experiment: Minimum Inhibitory Concentration, tube dilution; assay type: cell-based; settings: Klebsiella pneumoniae, A20468
P. aeruginosa A-9843A = experiment: Minimum Inhibitory Concentration, tube dilution; assay type: cell-based; settings: Pseudomonas aeruginosa, A9843A, overnight 37° C.; table 6; read-out: MIC
P. mirabilis A-9900 = experiment: Minimum Inhibitory Concentration, tube dilution; assay type: cell-based; settings: Proteus mirabilis, A9900, overnight 37° C.; table 6
S. marcescens A20019 = experiment: Minimum Inhibitory Concentration, tube dilution; assay type: cell-based; settings: Serratia marcescens, A20019, overnight 37° C.; table 6
E. coli A20341-1 = experiment: Minimum Inhibitory Concentration, tube dilution; assay type: cell-based; settings: Escherichia coli, A203411, overnight 37° C.; table 6
S. pyogenes A-9604 = experiment: Minimum Inhibitory Concentration, tube dilution; assay type: cell-based; settings: Streptococcus pyogenes, A9604, overnight 37° C.; table 6
B. fragilis A22696 = experiment: Minimum Inhibitory Concentration, tube dilution; assay type: cell-based; settings: Bacteroides fragilis
P. aeruginosa A9843A [2] = experiment: animal or person; assay type: in vivo, mice; settings: Pseudomonas aeruginosa, in Mus musculus, im, 3.5 h, read-out: PD50 /treatment
Procedure: as §1

B. fragilis A22862 = experiment: Minimum Inhibitory Concentration, tube dilution; assay type: cell-based; settings: Bacteroides fragilis, overnight 37° C., table 6
S. faecalis A20688 = experiment: Minimum Inhibitory Concentration, tube dilution; assay type: cell-based; settings: Enterococcus faecalis
S. pneumoniae A-9585 = experiment: Minimum Inhibitory Concentration, tube dilution; assay type: cell-based; settings: Streptococcus pneumoniae, A9585, overnight 37° C.; table 6
[3] = tested on: S. aureus A15097 (Meth-res.); experiment: Minimum Inhibitory Concentration, tube dilution; assay type: cell-based; settings: Staphylococcus aureus, table 6
[4] = Pharmacokinetic parameters in the mouse after intramuscular dose; assay type: in vivo, mice; settings: im, 20 mg/kg; for AUC / Cmax / half-life: blood; for half-life: read-out: T1/2 (blood); for dose excreted: urine, read-out: Urine Recovery
From the text: Also shown is the urinary recovery in the mice.
Compounds were solubilized in 0.1 M phosphate buffer pH 7.

S. aureus A-9537 = experiment: Minimum Inhibitory Concentration, tube dilution; assay type: cell-based; settings: Staphylococcus aureus, table 6, read-out: MIC
M. morganii A15153 = experiment: Minimum Inhibitory Concentration, tube dilution; assay type: cell-based; settings: Morganella morganii, A15153, overnight 37° C.; table 6
[5] = tested on: S. aureus A-9606 (Pen-res.); experiment: Minimum Inhibitory Concentration, tube dilution; assay type: cell-based; settings: Staphylococcus aureus, Pen-res; table 6
E. cloacae A-9656 = experiment: Minimum Inhibitory Concentration, tube dilution; assay type: cell-based; settings: Enterobacter cloacae, A9656; overnight 37° C.; table 6
P. rettgeri A22424 = experiment: Minimum Inhibitory Concentration, tube dilution; assay type: cell-based; settings: Providencia rettgeri, overnight 37° C., table 6, read-out: MIC
E. cloacae A9659 = experiment: Minimum Inhibitory Concentration, tube dilution; assay type: cell-based; settings: Enterobacter cloacae, A9659, overnight 37° C.; table 6; read-out: MIC
P. aeruginosa A9843A [6] = experiment: animal or person; assay type: in vivo, mice; settings: Pseudomonas aeruginosa, in Mus musculus, im, read-out: PD50 /treatment
From the text: The PD50 (dose in mg/kg required to give protection to 50% of the infected mice) is indicated.

K. pneumoniae A-9664 = experiment: Minimum Inhibitory Concentration, tube dilution; assay type: cell-based; settings: Klebsiella pneumoniae, A9664, overnight 37° C.; table 6
[7] = A20688, overnight 37° C., table 6, read-out: MIC
[8] = overnight 37° C., table 6, read-out: MIC
[9] = A21213, overnight 37° C., table 6, read-out: MIC

| Structure (SMILES) | MIC (H. influenzae A21518) [µg/mL] | MIC (P. vulgaris A21559) [µg/mL] | MIC (H. influenzae A-9833) [µg/mL] | ED50 (P. aeruginosa A20481) [mg/kg] | ED50 (S. aureus A9606) [mg/kg] | ED50 (P. mirabilis A9900) [mg/kg] | MIC (E. coli A15119) [µg/mL] | MIC (P. aeruginosa A-9843A) [µg/mL] | MIC (P. mirabilis A-9900) [µg/mL] | MIC (S. marcescens A20019) [µg/mL] | MIC (E. coli A20341-1) [µg/mL] | MIC (S. pyogenes A-9604) [µg/mL] | ED50 (P. aeruginosa A9843A [2]) [mg/kg] | MIC (B. fragilis A22862) [µg/mL] | MIC (S. faecalis A20688; [7]) [µg/mL] | MIC (S. pneumoniae A-9585) [µg/mL] | MIC [3] [µg/mL] | MIC (S. aureus A-9537; A9537, overnight 37° C.) [µg/mL] | MIC (M. morganii A15153) [µg/mL] | MIC [5] [µg/mL] | also measured |
| --- | --- | --- | --- | --- | --- | --- | --- | --- | --- | --- | --- | --- | --- | --- | --- | --- | --- | --- | --- | --- | --- |
| C[C@@H](O)[C@H]1C(=O)N2C(C(=O)[O-])=C(SCC[n+]3ccc(CO)cc3)C[C@H]12 [Example 6, (5R, 6S)-3-[2-(4-hydroxymethylpyridinio)ethylthio]-6-[1-(R)-hydroxyethyl]-7-oxo-1-azabicyclo[3.2.0]hept-2-ene-2-carboxylate] | > 32 | 0.03 (≈ 0.0823 µM) | > 32 | 0.6 | ~3 | ~16 | 0.03 (≈ 0.0823 µM) | 4 (≈ 11 µM) | 0.06 (≈ 0.165 µM) | 0.06 (≈ 0.165 µM) | 0.03 (≈ 0.0823 µM) | 0.03 (≈ 0.0823 µM) | 0.9 | 0.06 (≈ 0.165 µM) | 1 (≈ 2.74 µM) | 0.03 (≈ 0.0823 µM) | > 63 | 0.03 (≈ 0.0823 µM) | 0.03 (≈ 0.0823 µM) | 0.03 (≈ 0.0823 µM) | half-life [1]: 14.5 h; MIC (P. aeruginosa A21213; A21213): 0.5 µg/mL (≈ 1.37 µM); MIC (K. pneumoniae A20468): 0.5 µg/mL (≈ 1.37 µM); MIC (B. fragilis A22696): 0.5 µg/mL (≈ 1.37 µM); AUC [4]: 7700 ng·h/mL; Cmax [4]: 15200 ng/mL; half-life [4]: 0.167 h; dose excreted [4]: 38 ± 13% |
| C[C@@H](O)[C@H]1C(=O)N2C(C(=O)[O-])=C(SCC[n+]3cccc(CO)c3)C[C@H]12 [Example 5, (5R,6S)-3-[[2-(3-hydroxymethylpyridino)ethyl]thio]-6-[(R)-1-hydroxyethyl]-7-oxo-1-azabicyclo[3.2.0]hept-2-ene-2-carboxylate] | > 32 | 0.06 (≈ 0.165 µM) | > 32 | 0.8 | 0.5 | 22 | 0.06 (≈ 0.165 µM) | 2 (≈ 5.49 µM) |  |  | 0.06 (≈ 0.165 µM) | 0.03 (≈ 0.0823 µM) | 0.9 | 0.06 (≈ 0.165 µM) | 0.5 (≈ 1.37 µM) | 0.03 (≈ 0.0823 µM) | > 63 | 0.03 (≈ 0.0823 µM) |  | 0.03 (≈ 0.0823 µM) | half-life [1]: 14 h; MIC (B. fragilis A22696; [8]): 0.5 µg/mL (≈ 1.37 µM); MIC (S. aureus A-9537; A9537, 50% serum): 0.06 µg/mL (≈ 0.165 µM) |
| CC(C[n+]1ccccc1)SC1=C(C(=O)[O-])N2C(=O)[C@H]([C@@H](C)O)[C@H]2C1 (single isomer, unassigned) [Ex. 15 (cmp. "B")] |  |  |  |  |  |  |  |  |  |  |  |  |  |  |  |  | 0.03 (≈ 0.0861 µM) |  |  |  | half-life at 100 µM [1]: 12.6 h; MIC (E. cloacae A-9656): 0.06 µg/mL (≈ 0.172 µM); MIC (P. rettgeri A22424): 0.06 µg/mL (≈ 0.172 µM) |
| Cc1cccc[n+]1CCSC1=C(C(=O)[O-])N2C(=O)[C@H]([C@@H](C)O)[C@H]2C1 [Example 7, 3-[2-(1-(2-methylpyridinium))ethylthio]-6α-[1-(R)-hydroxyethyl]-7-oxo-1-azabicyclo(3.2.0)hept-2-ene-carboxylate] | > 32 | 0.03 (≈ 0.0861 µM) | > 32 | 1.4 | 0.6 | ~22 | 0.03 (≈ 0.0861 µM) | 4 (≈ 11.5 µM) | 0.03 (≈ 0.0861 µM) | 0.03 (≈ 0.0861 µM) | 0.03 (≈ 0.0861 µM) | 0.03 (≈ 0.0861 µM) | 0.9 | 0.06 (≈ 0.172 µM) |  | 0.03 (≈ 0.0861 µM) | > 63 | 0.03 (≈ 0.0861 µM) | 0.03 (≈ 0.0861 µM) | 0.03 (≈ 0.0861 µM) | half-life at 100 µM [1]: 15 h; MIC (P. aeruginosa A21213; [9]): 1 µg/mL (≈ 2.87 µM); MIC (B. fragilis A22696): 0.5 µg/mL (≈ 1.44 µM); MIC (S. faecalis A20688; A20688): 0.5 µg/mL (≈ 1.44 µM); AUC [4]: 7000 ng·h/mL; Cmax [4]: 15000 ng/mL; half-life [4]: 0.183 h; dose excreted [4]: 49 ± 9%; MIC (S. aureus A-9537; A9537, 50% serum): 0.03 µg/mL (≈ 0.0861 µM); MIC (E. cloacae A9659): 0.06 µg/mL (≈ 0.172 µM) |
| Cc1cccc(C)[n+]1CCSC1=C(C(=O)[O-])N2C(=O)[C@H]([C@@H](C)O)[C@H]2C1 [Example 12] |  | 0.03 (≈ 0.0828 µM) |  |  |  |  |  | > 32 | 0.06 (≈ 0.166 µM) | 0.06 (≈ 0.166 µM) | 0.016 (≈ 0.0441 µM) | 0.002 (≈ 0.00552 µM) |  | 0.06 (≈ 0.166 µM) | 0.25 (≈ 0.69 µM) | 0.002 (≈ 0.00552 µM) |  | 0.008 (≈ 0.0221 µM) | 0.06 (≈ 0.166 µM) | 0.016 (≈ 0.0441 µM) | MIC (P. aeruginosa A21213; [9]): 16 µg/mL (≈ 44.1 µM); MIC (E. cloacae A-9656): 0.5 µg/mL (≈ 1.38 µM); ED50 (P. aeruginosa A9843A [6]): > 25 mg/kg; MIC (K. pneumoniae A-9664): 0.06 µg/mL (≈ 0.166 µM); MIC (B. fragilis A22696; [8]): 0.25 µg/mL (≈ 0.69 µM); MIC (S. aureus A-9537; A9537, 50% serum): 0.03 µg/mL (≈ 0.0828 µM); MIC (P. rettgeri A22424): 0.5 µg/mL (≈ 1.38 µM); MIC (E. cloacae A9659): 0.25 µg/mL (≈ 0.69 µM) |
